Key:
[1] = test system: SHV-2 beta lactamase (Escherichia coli); type: biochemical
Description: (§1) The reagent mix was prepared as a 2× concentrated solution. The 2× concentrated reagent mix contained 50 mM HEPES (pH 7.0 to 7.2), 0.2 mM ZnCl2, 8 mM ATP, 10 mM DTT, 0.1 mM Coenzyme A, 5 micrograms/mL luciferase, 0.01 mM Cephalosporin-O-Luciferin, 0.1 mg/mL BSA, 8 mM CaCl2, 30 mM MgCl2, and 1% Triton X-100. Cephalosporin-O-Luciferin was used as a beta lactamase substrate. This substrate was synthesized and purified according to a procedure published in a scientific article (Angew. Chem. Int. Ed. 2007 Vol. 46, pp. 7031-7034), which is cited here solely as a reference.
(§2) Genes encoding five species of beta lactamase were synthesized and cloned into an E. coli expression vector. The E. coli cells transformed with the expression vector containing the gene encoding a beta lactamase was induced to express the enzyme. The cells were then pelleted, suspended in a sample buffer (Fisher Scientific Cat. No. 90084) and sonicated to lyse the cells.
(§3) 2× concentrated reagent mixes were prepared. The 2× reagent mix without a beta lactamase inhibitor or antibiotic (Reagent Mix I) was prepared according to the composition provided in Example 6. The 2× concentrated reagent mix containing a beta lactamase inhibitor or imipenem (Reagent Mix IIb) was prepared by supplementing the Reagent Mix I with 64 micrograms/mL of clavulanate (Reagent Mix IIa) or 64 micrograms/mL of imipenem (Reagent Mix IIb).
(§4) Reactions were carried out by diluting 50 microliters of 2× reagent mixes into 45 microliters of deionized water, followed by addition of 5 microliters of cell lysate. […] Light signal was measured using a luminometer after 15 min incubation at room temperature. The signal in Reagent Mix I was used to detect the presence of beta lactamase in the sample by comparing the signal in the reaction to that of negative controls while the signal ratio was used to determine the resistance of the beta lactamase to clavulanate or imipenem.
(§5) In this example, the signal ratios were expressed as R-Factor values, which were calculated as follows: R-Factor=10×(Reagent Mix II Signal÷Reagent Mix I Signal)

SHV-2 beta lactamase = SHV-2 beta lactamase (Escherichia coli, UniProt P0A9Z7); type: biochemical
Description: as §1, §2, §3, §4, §5

p99 beta lactamase = p99 beta lactamase (Enterobacter cloacae, UniProt P05364); type: biochemical
Description: as §1, §2, §3, §4, §5

KPC-2 beta lactamase = KPC-2 beta lactamase (Klebsiella pneumoniae, UniProt Q9F663); test: Beta lactamase luminescent assay with inhibitor reagent mixes; type: biochemical; conditions: 64 micrograms/mL in 2× mix, lysate dilution 1:10
Description: as §1, §2, §3, §4, §5

[2] = target: New Deli Metallo-beta lactamase (NDM-2) (Klebsiella pneumoniae, UniProt C7C422, P28A); test: as above; type: biochemical; conditions: 64 micrograms/mL in 2× mix, lysate dilution 1:2
Description: as §1, §2, §3, §4, §5

TEM-2 beta lactamase = TEM-2 beta lactamase (Escherichia coli, UniProt P62593, Q37K); test: as above; type: biochemical
Description: as §1, §2, §3, §4, §5

[3] = test system: beta lactamase of patient isolate colony; test: Clavulanate resistance using a single bacterial colony
Description: (§6) As described in EXAMPLE 7, the assay consisted of two reagents, Reagent Mix I and Reagent Mix II, where Reagent Mix I contained one master mix without clavulanate while Reagent Mix II contained a master mix with clavulanate. In this example, reagent mixes equivalent to 0.25 mL of the master mixes were lyophilized in test tubes.
(§7) Patient samples were cultured overnight on an agar plate. A single colony was suspended in 2.5 mL sample buffer as described in EXAMPLE 7, of which 0.25 mL was added to Reagent Mixes I and II vials. After incubation at room temperature for 15 min, the reagent vials were inserted into a luminometer for signal measurement.

[4] = test system: beta lactamase of patient isolate colony; test: as above; remark: listed apart in the source
Description: as §6, §7

[5] = test system: beta lactamase of patient isolate colony; test: as above; remark: listed apart in the source
Description: as §6, §7

[6] = test system: beta lactamase of patient isolate colony; test: as above; remark: listed apart in the source
Description: as §6, §7

Chain of KPC-2 beta lactamase (Q9F663 25-293 limits assumed): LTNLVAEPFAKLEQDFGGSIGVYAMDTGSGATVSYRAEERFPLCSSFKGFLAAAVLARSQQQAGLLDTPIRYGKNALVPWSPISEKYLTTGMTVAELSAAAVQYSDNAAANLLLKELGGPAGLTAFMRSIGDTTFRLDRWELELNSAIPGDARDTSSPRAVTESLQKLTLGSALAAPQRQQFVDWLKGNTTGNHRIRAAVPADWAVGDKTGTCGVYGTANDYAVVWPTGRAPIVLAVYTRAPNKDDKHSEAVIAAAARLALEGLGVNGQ
Chain of New Deli Metallo-beta lactamase (NDM-2) (C7C422 29-270 P28A (numbered from the first residue shown)): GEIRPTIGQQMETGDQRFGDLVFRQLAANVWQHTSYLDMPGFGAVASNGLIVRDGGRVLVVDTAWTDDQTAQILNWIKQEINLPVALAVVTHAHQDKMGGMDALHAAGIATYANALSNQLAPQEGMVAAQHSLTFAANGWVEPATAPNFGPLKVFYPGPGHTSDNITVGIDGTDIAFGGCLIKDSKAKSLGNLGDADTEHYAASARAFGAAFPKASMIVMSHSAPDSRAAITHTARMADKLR
Chain of SHV-2 beta lactamase (P0A9Z7 22-286): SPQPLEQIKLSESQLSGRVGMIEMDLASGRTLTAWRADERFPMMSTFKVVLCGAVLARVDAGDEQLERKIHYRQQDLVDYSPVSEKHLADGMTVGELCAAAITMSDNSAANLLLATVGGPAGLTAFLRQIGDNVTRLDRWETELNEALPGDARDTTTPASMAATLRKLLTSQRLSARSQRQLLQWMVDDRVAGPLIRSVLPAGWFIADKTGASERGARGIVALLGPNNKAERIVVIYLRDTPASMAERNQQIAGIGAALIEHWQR
Chain of SHV-2 beta lactamase (Escherichia coli) (P0A9Z7 22-286): as above
Chain of p99 beta lactamase (P05364 21-381): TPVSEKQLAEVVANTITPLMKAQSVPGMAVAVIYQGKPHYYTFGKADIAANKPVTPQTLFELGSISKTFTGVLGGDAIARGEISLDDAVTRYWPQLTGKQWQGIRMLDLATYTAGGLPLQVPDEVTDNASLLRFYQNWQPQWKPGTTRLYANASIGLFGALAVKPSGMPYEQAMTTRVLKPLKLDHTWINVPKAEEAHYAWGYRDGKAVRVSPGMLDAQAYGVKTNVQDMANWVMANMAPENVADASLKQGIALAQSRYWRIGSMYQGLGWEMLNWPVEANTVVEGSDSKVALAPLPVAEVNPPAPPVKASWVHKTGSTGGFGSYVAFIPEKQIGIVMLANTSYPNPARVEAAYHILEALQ

O=C(O)[C@H]1/C(=C/CO)O[C@@H]2CC(=O)N21 [Clavulanate, clavulanate]
R-Factor [1]: 0.23 | S/N (Signal to Noise Ratio) in inhibitor-containing reagent mix (SHV-2 beta lactamase): 1.00 | resistance of the beta lactamase to the substance (SHV-2 beta lactamase): susceptible | S/N (Signal to Noise Ratio) in inhibitor-containing reagent mix (p99 beta lactamase): 48.00 | R-Factor (KPC-2 beta lactamase): 8.94 | S/N (Signal to Noise Ratio) in inhibitor-containing reagent mix (KPC-2 beta lactamase; 15 min): 40.00 | R-Factor (KPC-2 beta lactamase; listed as clavulanate): high | R-Factor [2]: 6.02 | S/N (Signal to Noise Ratio) in inhibitor-containing reagent mix ([2]; 15 min): 13.00 | R-Factor ([2]; listed as clavulanate): high | R-Factor (TEM-2 beta lactamase; 64 micrograms/mL in 2× mix, lysate undiluted): 1.18 | S/N (Signal to Noise Ratio) in inhibitor-containing reagent mix (TEM-2 beta lactamase; 64 micrograms/mL in 2× mix, lysate undiluted, 15 min): 5.00 | resistance of the beta lactamase to the substance (TEM-2 beta lactamase; judged from R-Factor): susceptible | Interpretation ([3]; No. 1, Sample ID 1845): susceptible to CA (CA (clavulanate) resistance cutoff R-Factor value: 2.50) | R-Factor ([3]; No. 1, Sample ID 1845): 0.07 | Interpretation ([3]; No. 2, Sample ID 1847): susceptible to CA (CA (clavulanate) resistance cutoff R-Factor value: 2.50) | R-Factor ([3]; No. 2, Sample ID 1847): 0.15 | Interpretation ([3]; No. 20, Sample ID B650): susceptible to CA (CA (clavulanate) resistance cutoff R-Factor value: 2.50) | R-Factor ([3]; No. 20, Sample ID B650): 0.11 | Interpretation ([3]; No. 21, Sample ID B671): resistant to CA (CA (clavulanate) resistance cutoff R-Factor value: 2.50) | R-Factor ([3]; No. 21, Sample ID B671): 4.12 | Interpretation ([4]; No. 3, Sample ID 1820): resistant to CA (CA (clavulanate) resistance cutoff R-Factor value: 2.50) | R-Factor ([4]; No. 3, Sample ID 1820): 3.67 | Interpretation ([4]; No. 7, Sample ID 1789): susceptible to CA (CA (clavulanate) resistance cutoff R-Factor value: 2.50) | R-Factor ([4]; No. 7, Sample ID 1789): 1.14 | Interpretation ([4]; No. 8, Sample ID 1800): resistant to CA (CA (clavulanate) resistance cutoff R-Factor value: 2.50) | R-Factor ([4]; No. 8, Sample ID 1800): 11.13 | Interpretation ([4]; No. 13, Sample ID 1962-2): resistant to CA (CA (clavulanate) resistance cutoff R-Factor value: 2.50) | R-Factor ([4]; No. 13, Sample ID 1962-2): 15.47 | Interpretation ([4]; No. 14, Sample ID 1963): resistant to CA (CA (clavulanate) resistance cutoff R-Factor value: 2.50) | R-Factor ([4]; No. 14, Sample ID 1963): 19.95 | Interpretation ([5]; No. 5, Sample ID B612): susceptible to CA (CA (clavulanate) resistance cutoff R-Factor value: 2.50) | R-Factor ([5]; No. 5, Sample ID B612): 0.27 | Interpretation ([5]; No. 6, Sample ID B616): susceptible to CA (CA (clavulanate) resistance cutoff R-Factor value: 2.50) | R-Factor ([5]; No. 6, Sample ID B616): 0.13 | Interpretation ([6]; No. 17, Sample ID 2015): susceptible to CA (CA (clavulanate) resistance cutoff R-Factor value: 2.50) | R-Factor ([6]; No. 17, Sample ID 2015): 1.74 | Interpretation ([6]; No. 18, Sample ID 2022-1): susceptible to CA (CA (clavulanate) resistance cutoff R-Factor value: 2.50) | R-Factor ([6]; No. 18, Sample ID 2022-1): 1.31
